Literature values, collected in patent US7872019B2, “Polymorphs and amorphous form of (S)-(+)-clopidogrel bisulfate” (Cadila Healthcare Limited, priority 2003, dated 2011).

Experiments:
platelet aggregation = conditions: comparison of the two enantiomers, in words
[1] = comparison of the two enantiomers, in words

Structure (SMILES) | antiagregant platelet activity (platelet aggregation) | tolerance [1]
COC(=O)[C@@H](c1ccccc1Cl)N1CCc2sccc2C1 (single isomer, unassigned) [levorotatory enantiomer of (I)] | less active | less tolerated
COC(=O)[C@H](c1ccccc1Cl)N1CCc2sccc2C1 [dextrorotatory enantiomer of formula (I) of Clopidogrel] | excellent antiagregant platelet activity | –
